Data as given in patent US20240082463A1, “COATED MEDICAL PRODUCT” (HEMOTEQ AG, priority 2020, published 2024).

Assays:
[1] = Crystal suspensions of microcrystalline paclitaxel with different proportions of tri-O-acylglycerol; format: physicochemical; conditions: tri-O-acylglycerol:paclitaxel 20:80, after 100 h
Protocol: For this purpose, further investigation was carried out using solutions of trioctanoylglycerol or tridecanoylglycerol with different proportions of tri-O-acylglycerol to find out the optimum mass ratio of tri-O-acylglycerol to microcrystalline paclitaxel. To prepare the solutions, the appropriate amount of each tri-O-acylglycerol was dissolved in 14 g ethyl acetate (15.6 mL). […] Subsequently, homogenization and filtration were performed.

[2] = Uniformity of coating and recovery rate of active agent on coated balloon catheters
From the text: Balloon catheters 4×40 mm were coated with a 2% PTX suspension containing trioctanoylglycerol (20 wt % based on PTX) using a droplet dosing technique in a microdosing method such as the pipetting method, or droplet dragging method. […] The studies on the recovery rate of active agent on balloon catheters divided into equally sized segments confirm the uniformity of the coating and thus the success in using a crystal suspension as well as a 100% recovery rate
Balloon catheters 4×40 mm were each coated with a 2% PTX suspension containing tridodecanoylglycerol or tritetradecanoylglycerol (20 wt % based on PTX) using a drop dosing technique in a micro dosing method such as the pipetting method or drop dragging method.
For this purpose, the coated weighed balloon is fixed and inflated. The balloon is then cut with a scalpel into pieces of as equal size as possible, e.g. a 40 mm long balloon into 4 pieces, a 120 mm long balloon can be divided into 6 pieces. First, cut the balloon in half lengthwise and measure the layer thickness with a micrometer. Then the balloon is divided and the pieces are weighed and also the layer thicknesses are measured with the micrometer.
The coatings are each dissolved in a defined amount of acetone and the amount of active agent is determined via HPLC. The results are compared with each other, taking into account the balloon section areas.

[3] = cited from earlier work
[4] = Preparation and stability of crystal suspensions of microcrystalline paclitaxel with solutions of different tri-O-acylglycerols; conditions: 100 h and temperature elevation to 50° C.
From the text: In the first step, solutions of tri-O-acylglycerols were first prepared in a solvent mixture. Subsequently, the solutions were combined with microcrystals of paclitaxel to investigate which tri-O-acylglycerols could be used to obtain stable crystal suspensions. […] For the preparation of the solutions, an ethyl acetate/heptane solvent mixture was used here as an example.
To prepare the solutions, the respective tri-O-acylglycerol was first dissolved in a polar organic solvent and then a non-polar solvent was added.
To prepare the solutions, 770 mg of the respective tri-O-acylglycerol were dissolved in 14 g ethyl acetate (15.6 mL). Then, 57.4 g of n-heptane (84.4 mL) was added.
Subsequently, homogenization and filtration were performed. The total volume of the solvent mixture is 100 mL.
To a precisely weighed amount of dry microcrystals of the previously prepared paclitaxel, a defined amount of the solutions containing tri-O-acylglycerol and optionally antioxidant is carefully added.
To check whether crystal suspension can be prepared, to each 200 mg of paclitaxel in the form of microcrystals were carefully added 10 mL of one of the solutions 1a) to 1j) at room temperature. Six mixtures of 10 mL of solution for each solution were prepared. After combining, it was tested whether the microcrystals of paclitaxel dissolved directly in the solutions.
To evaluate the crystal size, particle size distribution (i.e., crystal size distribution), and shape of the crystals, a sample was taken with a Pasteur pipette in each case and a drop was placed on the slide of the SEM sample plate. SEM images were taken at 200× and 1000× magnification for evaluation.
To evaluate the crystal size, particle size distribution (i.e., crystal size distribution), and shape of the crystals, one sample was taken from each using a Pasteur pipette and one drop was placed on the foil of the SEM sample plate. An additional sample was taken from the sediment and one drop was placed on the slide of the SEM sample plate. SEM images were taken at 200× and 1000× magnification for evaluation. SEM images were taken at 200 and 1000× magnification for evaluation.
To prepare the solutions, 770 mg of the respective tri-O-acylglycerol were dissolved in 14 g ethyl acetate (15.6 mL). Then, 57.4 g of n-heptane (84.4 mL) was added. Subsequently, homogenization and filtration were performed. The total volume of the solvent mixture is 100 mL.
Three mixtures of 10 mL of solution for each solution were prepared. After combining, it was tested whether the microcrystals dissolved directly in these solutions.

stability of crystal suspension at ratio 20:80 [1]	stability and flexibility of coating [2]	stability of crystal suspension [4]	SMILES	solubility in water [3]
excellent stable	particularly stable and flexible coating	remained stable	CCCCCCCCCC(=O)OCC(COC(=O)CCCCCCCCC)OC(=O)CCCCCCCCC [tridecanoylglycerol]	practically insoluble
excellent stable	particularly stable and flexible coating	remained stable	CCCCCCCC(=O)OCC(COC(=O)CCCCCCC)OC(=O)CCCCCCC [trioctanoylglycerol]	practically insoluble
